From patent publication US6881705B2, “Fungicidal composition and use of this composition for controlling plant diseases” (Bayer Cropscience S.A., priority 2001, dated 2005)

Assays:
Geotrichum candidum = assay: in vitro control of Geotrichum candidum on PDA medium (colony diameter in microtitre plate wells); assay type: cell-based; details: 60 ppm in PDA medium; for Radial growth of the fungus (mm): 22° C., untreated control 15 mm; for Efficacy (%): colony diameter versus untreated control
Protocol: This example gives an illustration of the efficacy of a composition according to the invention for controlling Geotrichum candidum, this trial was carried out in vitro. The fungicidal compositions are used in solution at the doses detailed in Table 1. […] 1 day later, a microdrop of an aqueous suspension of Geotrichum candidum spores, supplemented with 400 ppm of Tween 20, is brought to the surface of each well of the microtitre plate. The cultures are then incubated at 22° C., 60% relative humidity, under subdued light until the control culture (without fungicide) has covered the entire surface of the well. The diameter of each colony is then measured and, in comparison with the untreated control, a percentage efficacy is calculated using the following formula: (diameter of the control−diameter of the trial)/diameter of the control×100.

Gloeosporium spp. = assay: in vivo trial combating Gloeosporium spp. on apples (Golden variety, preventive sprinkling)
Protocol: This example proposes to give an illustration of the efficacy of a composition according to the invention for combating Gloeosporium spp. on apples, this trial was carried out in vivo. The fungicidal compositions are used in solution at the doses detailed in Table 2. Apples of the Golden variety, untreated after harvest, are treated by sprinkling a fungicidal solution up to the run-off limit at the doses described in Table 2 of results (8 apples per product). 6 hours later, the fruit are inoculated by sprinkling an aqueous suspension at 150 000 spores/ml of Gloeosporium spp. obtained from a preculture on PDA medium. This inoculation by sprinkling is carried out up to the run-off limit. The fruit are then stored in the dark at 20° C., 100% relative humidity and the scores for the disease start 3 weeks later, for a period of 2 weeks. The number of fruit affected by rot are counted and, in comparison with the untreated control, a percentage efficacy is calculated using the following formula: […].

| Structure (SMILES) | Radial growth of the fungus (mm) (Geotrichum candidum) | Efficacy (%) (Geotrichum candidum) | Efficacy (%) (Gloeosporium spp.; 375 ppm, sprinkled on Golden apples 6 hours before inoculation, rot versus untreated control) | Efficacy (%) (Gloeosporium spp.; 75 ppm) |
| --- | --- | --- | --- | --- |
| C=CCOC(Cn1ccnc1)c1ccc(Cl)cc1Cl (stereo not drawn) [Imazalil, imazalil] | 14 mm | 7% | −29.2% |  |
| Cc1cc(C)nc(Nc2ccccc2)n1 [Pyrimethanil, pyrimethanil] | 15 mm | 0% |  | 14.9% |
